What was measured:
Format in all cases: in vivo
[1] = system: Spodoptera litura; assay: Pesticidal test against Spodoptera litura (cabbage leaf dip); details: foliar, 144 h, concentration 1 ppm, 2-stage larvae, examined after 6 days, 25° C., read-out: pesticidal rate
Procedure, shortened: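 Cabbage leaf pieces dipped 30 seconds in compound solution at a predetermined concentration and air-dried, then offered to second-stage larvae, five per group in two replicates. Held at 25° C. Living and dead larvae counted after 6 days.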

[2] = system: Plutella xylostella; assay: Pesticidal test against Plutella xylostella (cabbage leaf dip); details: foliar, 144 h, concentration 1 ppm, 2-stage larvae, examined after 6 days, 25° C., read-out: pesticidal rate
Procedure, shortened: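 Second-stage larvae (5 per group, two replicates) were released onto air-dried cabbage leaf discs that had been immersed for 30 seconds in compound solution at a set concentration. Mortality was scored after 6 days at 25° C.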

[3] = system: Adoxophyes honmai; assay: Pesticidal test against Adoxophyes honmai (artificial feed dip); details: 144 h, 2-stage larvae, examined after 6 days, 25° C., read-out: pesticidal rate; for pest or weed control at 10 ppm: concentration 10 ppm; for pest or weed control at 1 ppm: concentration 1 ppm
Procedure, shortened: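 Second-instar larvae, five per group in duplicate, were released onto air-dried feed slices previously immersed for 30 s in compound solution at a set concentration. Mortality was scored on day 6 at 25° C.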

[4] = system: Choristoneura magnanima; assay: Pesticidal test against Choristoneura magnanima (artificial feed dip); details: 144 h, 2-stage larvae, examined after 6 days, 25° C., read-out: pesticidal rate; for pest or weed control at 10 ppm: concentration 10 ppm; for pest or weed control at 1 ppm: concentration 1 ppm
Procedure, shortened: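 Second-stage larvae, five per group in duplicate, fed artificial diet that had been immersed 30 s in test solution at a predetermined concentration and air-dried. Mortality scored at day 6, 25° C.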

[5] = system: Helicoverpa armigera; assay: Pesticidal test against Helicoverpa armigera (cabbage leaf disk dip); details: foliar, 72 h, concentration 1 ppm, 2-stage larvae, examined after 3 days, 25° C., read-out: pesticidal rate
Procedure, shortened: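 Cabbage leaf disks were dipped for 30 s in test solution at a set concentration and air-dried. Second-instar larvae were placed one per hole and held at 25 °C, with live and dead counts taken after 3 days. Five larvae per group were tested in two replicates.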

[6] = system: Laodelphax striatellus; assay: Pesticidal test against Laodelphax striatellus (rice seedling spray); details: 144 h, concentration 100 ppm, 3-stage larvae, examined after 6 days, 25° C., read-out: pesticidal rate
Procedure, shortened: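 Rice seedlings sprayed with 2.5 ml acetone solution of compound at a predetermined concentration, air-dried, then infested with third-stage Laodelphax striatellus larvae in capped water-containing tubes at 25 °C. Living and dead insects counted after 6 days; ten larvae per group, two replicates.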

[7] = system: Musca domestica; assay: Pesticidal test against Musca domestica (petri dish dry film); details: 24 h, concentration 100 ppm, female adults, examined after 1 day, 25° C., read-out: pesticidal rate
Procedure, shortened: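 Female adult houseflies were confined at 25° C in capped 9 cm petri dishes coated with an air-dried film from 1 ml acetone solution of compound (predetermined concentration). Mortality was scored 1 day later, two replicates of five per group.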

[8] = system: Blattella germanica; assay: Pesticidal test against Blattella germanica (petri dish dry film); details: 24 h, concentration 100 ppm, female adults, examined after 1 day, 25° C., read-out: pesticidal rate
Procedure, shortened: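 Acetone solution of test compound at a predetermined concentration dried as a film in a 9 cm petri dish; female adult cockroaches released onto it and kept at 25° C. Living and dead counted after 1 day; five insects per group, two replicates.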

[9] = system: Coptotermes formosanus; assay: Pesticidal test against Coptotermes formosanus (treated filter paper); details: 120 h, concentration 30 ppm, examined after 5 days of treatment, 28° C., read-out: pesticidal rate
Description: Pesticidal Test against Coptotermes formosanus
20 μl of an acetone solution in which a test compound had been prepared at a predetermined concentration was added dropwise to the filter paper having a diameter of […] included in a polypropylene cup, and air-dried, and then 20 μl of water was added thereto. Coptotermes formosanus was released and the cup was capped. They were left to stand in a thermostatic chamber at 28° C., and the numbers of the living pests and the dead pests were examined after 5 days of treatment. The test was carried out with ten larvae per group in two replicates.

[10] = system: Ctenocephalides Felis; assay: Insecticidal test for Ctenocephalides felis, Test Example 1 (dry film in glass tube, 0.5 ml, Table A4); details: Ctenocephalides felis; concentration 0.1 μg/ml; adults; after 24 hours of the exposure; in triplicate; read-out: death rate
Description: Insecticidal Test for Ctenocephalides Felis
0.5 ml of a solution of acetone, the active ingredient, prepared to the prescribed concentration was added dropwise to a glass tube with a flat bottom (internal diameter: 2.6 cm, bottom area: 5.3 cm^2, height: 12 cm), and the solvent was evaporated at room temperature to form a dry film of the agent on the bottom surface. About 10 adults of Ctenocephalides Felis per glass tube were added, and the adults were contact-exposed to the test compound. After 24 hours of the exposure, the conditions of the adults were examined and classified into “alive” and “dead (including a moribund condition)” to determine the death rate (in triplicate).
As the comparative compounds, the following Compounds (A), (B), and (C) disclosed in WO2009/080203, and fipronil were used.

[11] = system: Ctenocephalides Felis; assay: Insecticidal test for Ctenocephalides felis, Test Example 3 (dry film in glass tube, 0.96 ml, Table A5); details: adults of Ctenocephalides felis, after 24 hours of exposure, in triplicate
Description: Insecticidal Test for Ctenocephalides felis
0.96 ml of a solution of acetone, the active ingredient, prepared to the prescribed concentration was added dropwise to a glass tube with a flat bottom (internal diameter: 3.6 cm, height: 12 cm), and the solvent was evaporated at room temperature to form a dry film of the agent on the bottom surface. About 10 adults of Ctenocephalides felis per glass tube were added, and they were contact-exposed to the test compound. After 24 hours of the exposure, the conditions of the adults were examined and classified into “alive” and “dead (including a moribund condition)” to determine the death rate was determined (in triplicate).
As the comparative compounds, the following Compounds (D) and (E) disclosed in WO2009/080203, and fipronil were used.

[12] = system: Rhipicephalus sanguineus; assay: Insecticidal test for Rhipicephalus sanguineus (treated glass petri dish, Table A6); details: adults of Rhipicephalus sanguineus, 18 hour exposure, examined after 48 hours, in single
Description: Insecticidal Test for Rhipicephalus sanguineus
0.5 ml of a solution of acetone, the active ingredient, prepared to the prescribed dose was added dropwise into a glass petri dish with a diameter of 10 cm, and the acetone was evaporated at room temperature. About 10 adults of Rhipicephalus sanguineus per dish were added, and the dish was covered by another glass petri dish that was treated with the active ingredient in the same manner described above. After 18 hour exposure to the test substance, the adults were transferred into a glass petri dish that was not treated with the active ingredient. After 48 hours of the exposure, the conditions of the adults were examined and classified into “alive” and “dead (including a moribund condition)” to determine the death rate (in single).
As the comparative compounds, said Compounds (B), (C), and (D), and the following Compound (F) disclosed in WO2009/080203, and fipronil were used.

Compound: CN(C(=O)c1ccccc1)c1cccc(C(=O)Nc2c(I)cc(C(F)(C(F)(F)F)C(F)(F)F)cc2C(F)(F)F)c1 [7-424]
- pest or weed control at 1 ppm [1]: ≥ 70%
- pest or weed control at 1 ppm [2]: ≥ 70%
- pest or weed control at 10 ppm [3]: ≥ 70%
- pest or weed control at 10 ppm [4]: ≥ 70%
- pest or weed control at 1 ppm [5]: ≥ 70%
- pest or weed control at 100 ppm [6]: ≥ 70%
- pest or weed control at 100 ppm [7]: ≥ 70%
- pest or weed control at 100 ppm [8]: ≥ 70%
- pest or weed control at 30 ppm [9]: ≥ 70%

Compound: O=C(Nc1cccc(C(=O)Nc2c(Br)cc(C(F)(C(F)(F)F)C(F)(F)C(F)(F)F)cc2C(F)(F)F)c1F)c1ccccc1 (stereo not drawn) [6-1652]
- pest or weed control at 1 ppm [1]: ≥ 70%
- pest or weed control at 1 ppm [2]: ≥ 70%
- pest or weed control at 1 ppm [3]: ≥ 70%
- pest or weed control at 1 ppm [4]: ≥ 70%
- pest or weed control at 1 ppm [5]: ≥ 70%
- pest or weed control at 100 ppm [6]: ≥ 70%
- pest or weed control at 100 ppm [7]: ≥ 70%
- pest or weed control at 30 ppm [9]: ≥ 70%

Compound: O=C(Nc1cccc(C(=O)Nc2c(I)cc(C(F)(C(F)(F)F)C(F)(F)F)cc2C(F)(F)F)c1F)c1ccc(F)cc1 [6-1733, 2-fluoro-3-(4-fluorobenzamide)-N-(2-iodo-4-(heptafluoropropan-2-yl)-6-(trifluoromethyl)phenyl)benzamide]
- pest or weed control at 1 ppm [1]: ≥ 70%
- pest or weed control at 1 ppm [2]: ≥ 70%
- pest or weed control at 1 ppm [3]: ≥ 70%
- pest or weed control at 1 ppm [4]: ≥ 70%
- pest or weed control at 1 ppm [5]: ≥ 70%
- pest or weed control at 100 ppm [6]: ≥ 70%
- pest or weed control at 100 ppm [7]: ≥ 70%
- pest or weed control at 100 ppm [8]: ≥ 70%
- pest or weed control at 0.1 µg/mL [10]: 70%

Compound: CN(C(=O)c1ccc(F)cc1)c1cccc(C(=O)Nc2c(Br)cc(C(F)(C(F)(F)F)C(F)(F)F)cc2C(F)(F)F)c1F [7-1577]
- pest or weed control at 1 ppm [1]: ≥ 70%
- pest or weed control at 1 ppm [2]: ≥ 70%
- pest or weed control at 10 ppm [3]: ≥ 70%
- pest or weed control at 1 ppm [4]: ≥ 70%
- pest or weed control at 1 ppm [5]: ≥ 70%
- pest or weed control at 100 ppm [6]: ≥ 70%
- pest or weed control at 100 ppm [7]: ≥ 70%
- pest or weed control at 100 ppm [8]: ≥ 70%
- pest or weed control at 30 ppm [9]: ≥ 70%

Compound: O=C(Nc1c(I)cc(C(F)(C(F)(F)F)C(F)(F)F)cc1C(F)(F)F)c1cccc(NC(=O)c2cccnc2Cl)c1 [6-460, 2-chloro-N-(3-(2-iodo-4-(perfluoropropan-2-yl)-6-(trifluoromethyl)phenylcarbamoyl)phenyl)nicotinamide]
- pest or weed control at 1 ppm [1]: ≥ 70%
- pest or weed control at 1 ppm [2]: ≥ 70%
- pest or weed control at 1 ppm [3]: ≥ 70%
- pest or weed control at 10 ppm [4]: ≥ 70%
- pest or weed control at 1 ppm [5]: ≥ 70%
- pest or weed control at 100 ppm [6]: ≥ 70%
- pest or weed control at 100 ppm [7]: ≥ 70%
- pest or weed control at 30 ppm [9]: ≥ 70%

Compound: Cc1cc(C(F)(C(F)(F)F)C(F)(F)F)cc(C)c1NC(=O)c1cccc(NC(=O)c2cccnc2Cl)c1F [compound (D)]
- death rate ([11]; 0.3 μg/ml): 22.0%
- death rate ([11]; 1 μg/ml): 61.4%
- death rate ([12]; 0.673 mg/m^2): 0.0%
- death rate ([12]; 2.69 mg/m^2): 10.0%
- death rate ([12]; 10.8 mg/m^2): 50.0%

Compound: CCc1cc(C(F)(C(F)(F)F)C(F)(F)F)cc(C)c1NC(=O)c1cccc(NC(=O)C2CC2)c1 [compound (F)]
- death rate ([12]; 0.673 mg/m^2): 0.0%
- death rate ([12]; 2.69 mg/m^2): 0.0%
- death rate ([12]; 10.8 mg/m^2): 0.0%

Reference: patent publication US8686044B2, “Amide derivative, pest control agent containing the amide derivative, and use of the amide derivative” (Mitsui Chemicals Agro, Inc., priority 2008, dated 2014)
